# According to the NIST ThermoML archive (doi:10.1021/je0497294):
# Values joined by “and” are separate entries in the source; they are usually repeats but may differ in a detail not shown here. Identical values can stand only once. Numbers after ± are expanded uncertainties.
# Columns and labels:
# [1] = 298.15 K; for surface tension liquid-gas: Pendant drop shape; for mass density: 101.33 kPa, Liquid
# [2] = xn = mol fraction of the nth substance listed; conditions: 298.15 K, Pendant drop shape
smiles,measurement,setting,value
"Cc1ccc(C)c(C)c1 [1,2,4-trimethylbenzene]",surface tension liquid-gas,[1],29.25 ± 0.33 mN/m
same,mass density,[1],871.64 ± 0.41 kg/m3
"Cc1ccc(C)c(C)c1 [1,2,4-trimethylbenzene] + C1CCOC1",surface tension liquid-gas,[2]; x2 = 0,29.25 ± 0.33 mN/m
same,surface tension liquid-gas,[2]; x2 = 0.0988,29.11 ± 0.32 mN/m
same,surface tension liquid-gas,[2]; x2 = 0.2018,29 ± 0.32 mN/m
same,surface tension liquid-gas,[2]; x2 = 0.3003,28.88 ± 0.31 mN/m
same,surface tension liquid-gas,[2]; x2 = 0.3995,28.73 ± 0.31 mN/m
same,surface tension liquid-gas,[2]; x2 = 0.5002,28.53 ± 0.3 mN/m
same,surface tension liquid-gas,[2]; x2 = 0.6005,28.29 ± 0.3 mN/m
same,surface tension liquid-gas,[2]; x2 = 0.6986,28.01 ± 0.3 mN/m
same,surface tension liquid-gas,[2]; x2 = 0.7996,27.68 ± 0.29 mN/m
same,surface tension liquid-gas,[2]; x2 = 0.9006,27.34 ± 0.29 mN/m
"Cc1ccc(C)c(C)c1 [1,2,4-trimethylbenzene] + C[S+](C)[O-]",surface tension liquid-gas,[2]; x2 = 0,29.25 ± 0.33 mN/m
same,surface tension liquid-gas,[2]; x2 = 0.1007,28.48 ± 0.32 mN/m
same,surface tension liquid-gas,[2]; x2 = 0.2007,28.77 ± 0.32 mN/m
same,surface tension liquid-gas,[2]; x2 = 0.3007,28.81 ± 0.32 mN/m
same,surface tension liquid-gas,[2]; x2 = 0.3995,29.1 ± 0.32 mN/m
same,surface tension liquid-gas,[2]; x2 = 0.501,29.46 ± 0.32 mN/m
same,surface tension liquid-gas,[2]; x2 = 0.6012,29.34 ± 0.32 mN/m
same,surface tension liquid-gas,[2]; x2 = 0.6992,29.35 ± 0.32 mN/m
same,surface tension liquid-gas,[2]; x2 = 0.7992,30.04 ± 0.33 mN/m
same,surface tension liquid-gas,[2]; x2 = 0.9013,35.71 ± 0.38 mN/m
"Cc1ccc(C)c(C)c1 [1,2,4-trimethylbenzene] + ClC(Cl)(Cl)Cl",surface tension liquid-gas,[2]; x2 = 0,29.25 ± 0.33 mN/m
same,surface tension liquid-gas,[2]; x2 = 0.0496,29.13 ± 0.32 mN/m
same,surface tension liquid-gas,[2]; x2 = 0.0996,29.04 ± 0.32 mN/m
same,surface tension liquid-gas,[2]; x2 = 0.1986,28.89 ± 0.32 mN/m
same,surface tension liquid-gas,[2]; x2 = 0.3001,28.72 ± 0.32 mN/m
same,surface tension liquid-gas,[2]; x2 = 0.4006,28.5 ± 0.31 mN/m
same,surface tension liquid-gas,[2]; x2 = 0.5987,28.24 ± 0.31 mN/m
same,surface tension liquid-gas,[2]; x2 = 0.6986,27.89 ± 0.3 mN/m
same,surface tension liquid-gas,[2]; x2 = 0.7985,27.54 ± 0.3 mN/m
same,surface tension liquid-gas,[2]; x2 = 0.9011,27.13 ± 0.29 mN/m
"Cc1cc(C)cc(C)c1 [1,3,5-trimethylbenzene]",surface tension liquid-gas,[1],28.09 ± 0.31 mN/m and 26.76 ± 0.3 mN/m
same,mass density,[1],861.03 ± 0.38 kg/m3
"Cc1cc(C)cc(C)c1 [1,3,5-trimethylbenzene] + C1CCOC1",surface tension liquid-gas,[2]; x2 = 0,28.09 ± 0.31 mN/m
same,surface tension liquid-gas,[2]; x2 = 0.0481,27.88 ± 0.31 mN/m
same,surface tension liquid-gas,[2]; x2 = 0.2021,27.72 ± 0.3 mN/m
same,surface tension liquid-gas,[2]; x2 = 0.3002,27.57 ± 0.3 mN/m
same,surface tension liquid-gas,[2]; x2 = 0.4,27.44 ± 0.3 mN/m
same,surface tension liquid-gas,[2]; x2 = 0.5004,27.32 ± 0.29 mN/m
same,surface tension liquid-gas,[2]; x2 = 0.601,27.23 ± 0.29 mN/m
same,surface tension liquid-gas,[2]; x2 = 0.7003,27.15 ± 0.29 mN/m
same,surface tension liquid-gas,[2]; x2 = 0.7989,27.09 ± 0.29 mN/m
same,surface tension liquid-gas,[2]; x2 = 0.9,27.06 ± 0.29 mN/m
"Cc1cc(C)cc(C)c1 [1,3,5-trimethylbenzene] + C[S+](C)[O-]",surface tension liquid-gas,[2]; x2 = 0,28.09 ± 0.31 mN/m
same,surface tension liquid-gas,[2]; x2 = 0.1023,27.3 ± 0.3 mN/m
same,surface tension liquid-gas,[2]; x2 = 0.1987,26.92 ± 0.3 mN/m
same,surface tension liquid-gas,[2]; x2 = 0.3027,26.7 ± 0.3 mN/m
same,surface tension liquid-gas,[2]; x2 = 0.401,27.41 ± 0.3 mN/m
same,surface tension liquid-gas,[2]; x2 = 0.4999,28.4 ± 0.31 mN/m
same,surface tension liquid-gas,[2]; x2 = 0.6003,30.09 ± 0.33 mN/m
same,surface tension liquid-gas,[2]; x2 = 0.699,32.05 ± 0.34 mN/m
same,surface tension liquid-gas,[2]; x2 = 0.8003,34.77 ± 0.37 mN/m
same,surface tension liquid-gas,[2]; x2 = 0.8998,37.92 ± 0.39 mN/m
"Cc1cc(C)cc(C)c1 [1,3,5-trimethylbenzene] + ClC(Cl)(Cl)Cl",surface tension liquid-gas,[2]; x1 = 1,26.76 ± 0.3 mN/m
C[S+](C)[O-] [dimethyl sulfoxide],surface tension liquid-gas,[1],42.09 ± 0.43 mN/m
same,mass density,[1],1095.54 ± 0.42 kg/m3
C[S+](C)[O-] [dimethyl sulfoxide] + Cc1cc(C)cc(C)c1,surface tension liquid-gas,[2]; x1 = 1,42.09 ± 0.43 mN/m
C[S+](C)[O-] [dimethyl sulfoxide] + Cc1ccc(C)c(C)c1,surface tension liquid-gas,[2]; x1 = 1,42.09 ± 0.43 mN/m
ClC(Cl)(Cl)Cl [tetrachloromethane],surface tension liquid-gas,[1],27.76 ± 0.3 mN/m and 26.76 ± 0.29 mN/m and 28.09 ± 0.3 mN/m
same,mass density,[1],1583.8 ± 0.76 kg/m3
ClC(Cl)(Cl)Cl [tetrachloromethane] + Cc1cc(C)cc(C)c1,surface tension liquid-gas,[2]; x2 = 0,28.09 ± 0.3 mN/m
same,surface tension liquid-gas,[2]; x2 = 0.1009,27.77 ± 0.3 mN/m
same,surface tension liquid-gas,[2]; x2 = 0.2014,27.53 ± 0.3 mN/m
same,surface tension liquid-gas,[2]; x2 = 0.2994,27.29 ± 0.3 mN/m
same,surface tension liquid-gas,[2]; x2 = 0.4007,27.1 ± 0.3 mN/m
same,surface tension liquid-gas,[2]; x2 = 0.4998,26.99 ± 0.3 mN/m
same,surface tension liquid-gas,[2]; x2 = 0.5995,26.91 ± 0.3 mN/m
same,surface tension liquid-gas,[2]; x2 = 0.6988,26.86 ± 0.3 mN/m
same,surface tension liquid-gas,[2]; x2 = 0.797,26.83 ± 0.3 mN/m
same,surface tension liquid-gas,[2]; x2 = 0.9012,26.81 ± 0.3 mN/m
ClC(Cl)(Cl)Cl [tetrachloromethane] + Cc1ccc(C)c(C)c1,surface tension liquid-gas,[2]; x1 = 1,26.76 ± 0.29 mN/m
C1CCOC1 [tetrahydrofuran],surface tension liquid-gas,[1],27.04 ± 0.29 mN/m
same,mass density,[1],882.06 ± 0.21 kg/m3
C1CCOC1 [tetrahydrofuran] + Cc1cc(C)cc(C)c1,surface tension liquid-gas,[2]; x1 = 1,27.04 ± 0.29 mN/m
C1CCOC1 [tetrahydrofuran] + Cc1ccc(C)c(C)c1,surface tension liquid-gas,[2]; x1 = 1,27.04 ± 0.29 mN/m
